Assays:
786-0 = conditions: 786-0, 48 h
MDA-MB-435 = conditions: MDA-MB-435, 48 h
NCI-H23 = conditions: NCI-H23, 48 h
OVCAR-3 = conditions: for TGI: OVCAR-3, 48 h
T-47D [1] = assay: cells; conditions: Homo sapiens, T47D, 48 h; for GI50: T-47D; for CC50: read-out: LC50
SN12C = conditions: SN12C, 48 h
NCI-H460 = assay: NCI-60 SRB screen; conditions: NCI-H460, 48 h; for GI50 / CC50: Homo sapiens; for CC50: read-out: LC50
NCI/ADR-RES = conditions: 48 h
SK-MEL-28 = assay: cells; conditions: Homo sapiens, SK-MEL-28, 48 h; for CC50: read-out: LC50, SK-MEL-28, 48 h
CCRF-CEM = assay: cells; conditions: Homo sapiens, 48 h
SR = conditions: 48 h
T-47D [2] = conditions: 48 h
HCT-116 = conditions: HCT-116, 48 h
ACHN = assay: NCI-60 SRB screen; conditions: 48 h; for GI50 / CC50: Homo sapiens; for CC50: read-out: LC50, ACHN, 48 h
KM12 = assay: NCI-60 SRB screen; conditions: KM12, 48 h
SK-MEL-2 = assay: NCI-60 SRB screen; conditions: SK-MEL-2, 48 h; for GI50 / CC50: Homo sapiens; for CC50: read-out: LC50, SK-MEL-2, 48 h
LOX IMVI [3] = conditions: LOX IMVI, 48 h
CAKI-1 [4] = conditions: CAKI-1, 48 h
A498 = conditions: for TGI: A498, 48 h
RPMI-8226 = assay: cells; conditions: Homo sapiens, RPMI-8226, 48 h; for CC50: read-out: LC50
SK-MEL-5 [5] = assay: cells; conditions: Homo sapiens, SK-MEL-5, 48 h; for CC50: read-out: LC50, SK-MEL-5, 48 h
HT29 [6] = assay: cells; conditions: Homo sapiens, HT-29, 48 h
LOX IMVI [7] = assay: cells; conditions: Homo sapiens, 48 h; for CC50: read-out: LC50, LOX IMVI, 48 h
SF-268 = conditions: SF-268, 48 h
CAKI-1 [8] = assay: cells; conditions: Homo sapiens, CAKI-1, 48 h
Prostate Cancer = Prostate Cancer subpanel
K-562 = conditions: K-562, 48 h
SK-MEL-5 [9] = conditions: for TGI: SK-MEL-5, 48 h
HT29 [10] = conditions: HT29, 48 h
RXF 393 = assay: NCI-60 SRB screen; conditions: RXF 393, 48 h; for GI50: Homo sapiens
SNB-19 = assay: NCI-60 SRB screen; conditions: SNB-19, 48 h; for GI50 / CC50: Homo sapiens; for CC50: read-out: LC50, SNB-19, 48 h
SNB-75 = assay: NCI-60 SRB screen; conditions: SNB-75, 48 h; for GI50 / CC50: Homo sapiens; for CC50: read-out: LC50, SNB-75, 48 h
SW-620 = assay: NCI-60 SRB screen; conditions: SW-620, 48 h
UACC-257 = assay: cells; conditions: Homo sapiens, UACC-257, 48 h; for CC50: read-out: LC50, UACC-257, 48 h

SMILES: O=C(O)C(c1ccccc1)N1C(=O)/C(=C/C=C/c2ccc([N+](=O)[O-])o2)SC1=S (centres unmarked) [9b, 2-((Z)-5-((E)-3-(5-Nitrofuran-2-yl)allylidene)-4-oxo-2-thioxothiazolidin-3-yl)-2-phenylacetic acid]
- TGI (786-0): 12.8 µM
- TGI (MDA-MB-435): 13.0 µM
- TGI (NCI-H23): 31.0 µM
- TGI (OVCAR-3): 21.4 µM
- GI50 (T-47D [1]): 11.1 µM
- CC50 (T-47D [1]): > 100 µM
- TGI (SN12C): 18.3 µM
- GI50 (NCI-H460): 11.6 µM
- CC50 (NCI-H460): 73.6 µM
- TGI (NCI-H460): 29.2 µM
- TGI (NCI/ADR-RES): 33.9 µM
- GI50 (SK-MEL-28): 10.7 µM
- CC50 (SK-MEL-28): 51.1 µM
- GI50 (CCRF-CEM): 3.12 µM
- TGI (SR): 18.0 µM
- TGI (T-47D [2]): 39.4 µM
- TGI (HCT-116): 8.14 µM
- TGI (ACHN): 21.4 µM
- GI50 (ACHN): 9.25 µM
- CC50 (ACHN): 47.2 µM
- GI50 (KM12; Homo sapiens): 6.66 µM
- TGI (KM12): 20.6 µM
- GI50 (SK-MEL-2): 5.64 µM
- CC50 (SK-MEL-2): 49.2 µM
- TGI (SK-MEL-2): 19.7 µM
- TGI (LOX IMVI [3]): 25.9 µM
- TGI (CAKI-1 [4]): 19.7 µM
- TGI (A498): 36.5 µM
- GI50 (RPMI-8226): 3.19 µM
- CC50 (RPMI-8226): > 100 µM
- GI50 (SK-MEL-5 [5]): 3.38 µM
- CC50 (SK-MEL-5 [5]): 38.8 µM
- GI50 (HT29 [6]; HT29, 48 h): 5.02 µM
- CC50 (HT29 [6]; read-out: LC50, HT29, 48 h): 94.5 µM
- GI50 (LOX IMVI [7]): 10.8 µM
- CC50 (LOX IMVI [7]): 62.3 µM
- TGI (SF-268): 23.7 µM
- GI50 (CAKI-1 [8]): 6.27 µM
- MG_MID TGI (Prostate Cancer): 26.8 µM
- TGI (K-562): 19.3 µM
- TGI (SK-MEL-5 [9]): 13.7 µM
- TGI (HT29 [10]): 22.4 µM
- GI50 (RXF 393): 4.01 µM
- TGI (RXF 393): 14.6 µM
- GI50 (SNB-19): 13.5 µM
- CC50 (SNB-19): 51.4 µM
- TGI (SNB-19): 26.3 µM
- GI50 (SNB-75): 2.11 µM
- CC50 (SNB-75): 27.9 µM
- TGI (SNB-75): 7.39 µM
- GI50 (SW-620; Homo sapiens): 2.94 µM
- TGI (SW-620): 9.66 µM
- GI50 (UACC-257): 13.2 µM
- CC50 (UACC-257): 56.1 µM

SMILES: O=C(O)CCN1C(=O)/C(=C/C=C/c2ccc([N+](=O)[O-])o2)SC1=S [12b, 3-((Z)-5-((E)-3-(5-Nitrofuran-2-yl)allylidene)-4-oxo-2-thioxothiazolidin-3-yl)propanoic acid]
- TGI (786-0): 3.54 µM
- TGI (MDA-MB-435): 2.48 µM
- TGI (NCI-H23): 3.37 µM
- growth GP (OVCAR-3; OVCAR-3, 10 μM, 48 h): -96.70%
- TGI (OVCAR-3): 3.01 µM
- GI50 (T-47D [1]): 0.94 µM
- CC50 (T-47D [1]): > 100 µM
- growth GP (SN12C; 10 μM): -95.84%
- TGI (SN12C): 2.32 µM
- GI50 (NCI-H460): 1.33 µM
- CC50 (NCI-H460): 6.46 µM
- TGI (NCI-H460): 2.93 µM
- TGI (NCI/ADR-RES): 4.28 µM
- GI50 (SK-MEL-28): 1.57 µM
- CC50 (SK-MEL-28): 5.93 µM
- GI50 (CCRF-CEM): 0.25 µM
- TGI (SR): 1.15 µM
- TGI (T-47D [2]): 3.55 µM
- TGI (HCT-116): 3.57 µM
- growth GP (ACHN; 10 μM): -99.00%
- TGI (ACHN): 2.97 µM
- GI50 (ACHN): 1.61 µM
- CC50 (ACHN): 5.46 µM
- TGI (KM12): 3.37 µM
- GI50 (SK-MEL-2): 1.44 µM
- CC50 (SK-MEL-2): 5.68 µM
- TGI (SK-MEL-2): 2.86 µM
- growth GP (LOX IMVI [3]; 10 μM): -95.70%
- TGI (LOX IMVI [3]): 1.86 µM
- TGI (CAKI-1 [4]): 2.74 µM
- growth GP (A498; A498, 10 μM, 48 h): -96.94%
- TGI (A498): 27.4 µM
- GI50 (RPMI-8226): 1.23 µM
- CC50 (RPMI-8226): > 100 µM
- GI50 (SK-MEL-5 [5]): 1.03 µM
- CC50 (SK-MEL-5 [5]): 4.87 µM
- GI50 (LOX IMVI [7]): 0.58 µM
- CC50 (LOX IMVI [7]): 4.34 µM
- TGI (SF-268): 3.18 µM
- GI50 (CAKI-1 [8]): 1.42 µM
- MG_MID TGI (Prostate Cancer): 10.6 µM
- TGI (K-562): 2.73 µM
- growth GP (SK-MEL-5 [9]; SK-MEL-5, 10 μM, 48 h): -97.62%
- TGI (SK-MEL-5 [9]): 2.24 µM
- TGI (HT29 [10]): 12.5 µM
- GI50 (RXF 393): 1.58 µM
- TGI (RXF 393): 3.02 µM
- GI50 (SNB-19): 2.3 µM
- CC50 (SNB-19): 22.9 µM
- TGI (SNB-19): 6.37 µM
- GI50 (SNB-75): 1.1 µM
- CC50 (SNB-75): 14.1 µM
- TGI (SNB-75): 3.67 µM
- TGI (SW-620): 19.8 µM
- GI50 (UACC-257): 1.81 µM
- CC50 (UACC-257): 9.21 µM

Source: PMC12655351, “Synthesis and Anticancer Activity Evaluation of New 5-((5-Nitrofuran-2-yl)allylidene)-2-thioxo-4-thiazolidinones” (Pharmaceuticals, 2025)
